Experimental data from patent publication US11484536B2, “Method of treating metastatic cancer in a subject with a protein inhibitor” (City University of Hong Kong, priority 2020, dated 2022).
Entries after “also recorded” stand apart in the source; their conditions may differ.

Tests used:
[1] = target: T1, recombinant CapZβ-CapZα heterodimer (Homo sapiens, UniProt P47756); experiment: Streptavidin pulldown with purified recombinant CapZα and CapZβ; type: binding; conditions: in vitro
T1 construct: His6
Description: FIG. 14D is a pair of immunoblots of purified CapZα and CapZβ recombinant proteins after incubated with Biotin-V1. FIG. 14E is a CapZβ immunoblot of lysate of HeLa cells treated with biotin or Biotin-V1.
The expression of these genes in HeLa cells were knocked out by CRISPR/Cas9 to assess whether the ability of V1 inducing vacuole formation or endocytosis arrest would be affected by these knockdowns. […] CapZα and CapZβ are the α and β subunits of the actin capping protein (CP), also called CapZ, and the CapZβ-CapZα heterodimeric complex normally binds to the barbed ends of actin filaments to prevent further filament elongation. To investigate whether biotin-V1 or biotin alone would be able to bind with the CapZβ-CapZα heterodimeric complex, the inventors have incubated biotin or bioin-V1 with purified His6-CapZα and His6-CapZβ recombinant proteins, or purified CapZα and CapZβ proteins, followed by subjecting the mixture to streptavidin pulldown. The streptavidin pulldowns were analyzed by His6 immunoblotting, coomassie blue staining or CapZβ immunoblotting. […] In addition, in another experiment, HeLa cells were treated with biotin or biotin-V1 and the lysate thereof was incubated with streptavidin beads, followed by subjecting to streptavidin pulldown.

[2] = system: HeLa cells; experiment: Focal adhesion dynamics after nocodazole release (Vinculin puncta); type: cell-based; conditions: nocodazole treatment
Source text: The indicated time points represent at which NOC was removed from the HeLa cells, followed by staining the cells with anti-Vinculin antibody and Phalloidin. […] The indicated time points of FIGS. 3B and 3C represent at which the HeLa cells were released from cold arrest, followed by being stained with antibodies against EEA1 or LAMP1.
Focal adhesion (FA) dynamics is a key process during cell migration and therefore the effects of V1 treatment on spatiotemporal regulation of FA dynamics have been assessed. HeLa cells were plated on cover slides at 24-well plates and treated with nocodazole (NOC) in the presence or absence of V1 (1 μM). At indicated times, after removing NOC, the cells were stained with anti-Vinculin antibody and Phalloidin, and the Vinculin puncta were quantified.

[3] = system: 4T1, 4T07, and MDA-MB-231 cells; experiment: Trans-well migration assay; type: cell-based, human or mouse; conditions: indicated concentrations, 18 h, compared with V1
Description: FIG. 2A is a series of microscopic images and bar charts showing the migration of 4T1, 4T07, and MDA-MB-231 cells in transwell plates in the presence or absence of V1 (1 μM). FIG. 2B is a series of microscopic images and bar charts showing the invasion of 4T1, 4T07, and MDA-MB-231 cells in invasion chambers in the presence or absence of V1 (1 μM). FIG. 2C is a series of optical images and a bar chart showing the closure of a scratch-wound plated with 4T1 cells, treated with or without V1 (1 μM), after 0, 24, and 48 h. FIG. 2D is a series of optical images and a bar chart showing the closure of a scratch-wound plated with 4T07 cells, treated with or without V1 (1 μM), after 0, 24, and 48 h. FIG. 2E is a series of microscopic images showing the migration of 4T07 cells in transwell plates in the presence or absence of V1 or LA at indicated concentrations after 18 h. […]
In this example, the cytotoxicity and the anti-migration effects of V1 are compared with latrunculin A (LA), an F-actin destabilizer. […] The breast cancer cells were placed on the upper chamber of the transwell plates or invasion chambers coated with Matrigel in the presence or absence of V1, after 18 h of incubation, the cells at the lower chamber were stained with crystal violet and quantified. […]

[4] = system: HeLa cells; experiment: LC3-II and p62 accumulation immunoblot; type: cell-based
Description: FIG. 12A is a synthetic scheme of a V1 analog carrying a clickable terminal alkynyl group. FIG. 12B is a synthetic scheme of azide-biotin. FIG. 12C is a synthetic scheme of Vi-biotin.
FIG. 23A is a schematic diagram illustrating the structure of 6J-1.
Subsequently, biotin-V1 was administered to HeLa cell extracts, the V1 binding complex was purified with streptavidin beads, and subjected to mass analysis. There were 85 potential V1 binding proteins identified in three independent experiments with high fidelity (FIG. 13A). Among them, 32 proteins were clustered in endocytosis and vesicle-mediated transport pathways using KOBAS online software.
In this example, a 6-morpholino-1,3,5-triazine derivative, 6J-1 was synthesized and used as an exemplary example to illustrate the inhibitory effect of 6-morpholino-1,3,5-triazine derivatives on endosomal trafficking and metastasis. As illustrated above, the induction of accumulation of LC3-II and p62 by biotin-V1 would accompany with the induction of vacuoles as well as the inhibition of transferrin degradation (see Example 4).

[5] = system: HeLa, A549, or MDA-MB-231 cells; experiment: Cytotoxicity of 6J-1 by PI staining and living cell number; type: cell-based
Description: FIG. 24A is a bar chart showing the percentage of cell death of HeLa cells treated with or without 6J-1 at the indicated concentrations for 24 or 48 h. FIG. 24B is a bar chart showing the percentage of cell death of A549 cells treated with or without 6J-1 at the indicated concentrations for 24 or 48 h. FIG. 24C is a bar chart showing the percentage of cell death of MDA-MB-231 cells treated with or without 6J-1 at the indicated concentrations for 24 or 48 h.
FIG. 25A is a line chart showing the number of HeLa cells treated with or without 6J-1 at the indicated concentrations for 0, 24 or 48 h. FIG. 25B is a line chart showing the number of MDA-MB-231 cells treated with or without 6J-1 at the indicated concentrations for 0, 24 or 48 h. FIG. 25C is a line chart showing the number of A549 cells treated with or without 6J-1 at the indicated concentrations for 0, 24 or 48 h.
The cytotoxicity of 6J-1 on different cancer cell lines has been examined by PI staining, and the cell number of living cells was quantified as well. As shown in FIGS. 24A-24C and 25A-25C, 6J-1 is non-cytotoxic to HeLa, A549, or MDA-MB-231 cells at concentrations of 0.01-10 μM. Even at a concentration of as high as 100 μM, there were over 80% of the 6J-1-treated cells remained alive.

[6] = system: 4T1, A549, HCCLM3, and HepG2; experiment: Colony formation of cancer cell lines; type: cell-based; conditions: indicated concentrations
Source text: FIG. 26 is a series of optical images showing colony formation of 4T1, A549, HCCLM3, and HepG2 cells treated with or without 6J-1 at the indicated concentrations.
(§1) The inhibitory effect of 6J-1 on colony formation of several cancer cell lines, including 4T1, A549, HCCLM3, and HepG2 has been examined. […] Overall, 6J-1 is found to be as potent as V1.

[7] = system: A549 and HepG2 cells; experiment: Migration of cancer cells treated with 6J-1; type: cell-based; conditions: 6J-1 1 μM
Description: FIG. 27A is a pair of microscopic images showing the migration of A549 cells treated with or without 6J-1 (1 μM). FIG. 27B is a series of microscopic images showing the migration of HepG2 cells treated with or without V1 (1 μM) or 6J-1 (1 μM).
as §1

[8] = system: A549 cells; experiment: Invasion of cancer cells treated with 6J-1; type: cell-based; conditions: 6J-1 1 μM
Description: FIG. 28 is a pair of microscopic images showing the invasion of A549 cells treated with or without 6J-1 (1 μM).
as §1

[9] = system: 4T1 mouse breast cancer cells; experiment: Spontaneous cancer mouse model, fat pad injection of 4T1 cells into nude mice; conditions: 6J-1 30 mg/kg, oral, every day, 4 weeks
Description: FIG. 5A is a schematic diagram showing a method for determining the anti-metastatic activity of V1 in female nude mice with their fat pads injected with 4T1 cells, where V1 is administered to the mice via an oral gauge. FIG. 5B is a series of optical images showing the excised lungs of the mice treated with a buffer or V1 (15 or 30 mg/kg, daily) via the oral gauge for 4 weeks. FIG. 5C is a line plot showing the number of tumor nodules in the excised lungs against different concentrations of V1.
FIG. 29A is a series of optical images showing the excised lungs of female nude mice treated with a buffer or 6J-1 (30 mg/kg, oral delivery, daily) for 4 weeks. FIG. 29B is a line plot showing the number of tumor nodules in the excised lungs of the mice of FIG. 29A.
First, we studied V1's anti-metastatic effects in a spontaneous cancer mouse model by fat pad injecting 4T1 mouse breast cancer cells into nude mice (FIG. 5A). After tumors were palpable (˜5 mm, around day 9), the mice were randomly divided into three groups (six mice per group) orally treated with or without V1 (15 or 30 mg/ml) every day. After 4 weeks, the mice were sacrificed; the primary tumors and lungs of the mice were harvested for analysis.

## O=C(O)CCCC[C@@H]1SC[C@@H]2NC(=O)N[C@@H]21 [biotin]
[1]
  interaction with recombinant CapZβ-CapZα heterodimer: not biotin alone

## COC(=O)Nc1nc2ccc(C(=O)c3cccs3)cc2[nH]1 [NOC, nocodazole]
[2]
  effect on microtubules and formation of FAs: depolymerized the microtubules and stabilized the formation of FAs

## C/C1=C/C(=O)O[C@@H]2C[C@@H](CC[C@H](C)/C=C\C=C\CC1)O[C@@](O)([C@@H]1CSC(=O)N1)C2 [LA, latrunculin A]
[3]
  migration of 4T07 cells: much lower effect on the migration of 4T07 cells at similar concentrations of V1

## OCCOCCN(c1ccccc1)c1nc(N/N=C/c2cccc(I)c2)nc(N2CCOCC2)n1 [6J-1]
[4]
  accumulation of LC3-II and p62: highly comparable result as V1; also recorded: induces comparable accumulation of LC3-II and p62 in HeLa cells as V1
[5]; 100 μM
  treated cells remained alive: over 80%
[5]; 0.01-10 μM, 24 or 48 h
  cytotoxicity: non-cytotoxic
[6]
  colony formation: inhibitory on the colony formation of all the aforementioned cell lines in a dose dependent manner
[7]
  migration of cancer cells: capable of inhibiting migration and invasion of cancer cells
[8]
  invasion of cancer cells: capable of inhibiting migration and invasion of cancer cells
[9]
  metastasis of 4T1 cells (tumor nodules in the lungs): significantly inhibited the metastasis of 4T1 cells
